The results in this text go back to patent US7297700B2, “Bicycloheteroaryl compounds as P2X7 modulators and uses thereof” (Renovis, Inc., priority 2005, dated 2007).

Where only a bound is given, the exact number is not on record here.

The subject of one experiment is IL-1β release from THP-1 cells. Nature of the experiment: IL-1β Release Assay (Alternate Method), THP-1 cells. The class given is cell-based, human. The note with it: Homo sapiens, THP-1, read-out: IL-1β % inhibition. Summed up:
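THP-1 cells differentiated 16 h with 100 ng/mL LPS plus 100 ng/mL IFN-γ, reprimed 2 h with 100 ng/mL LPS, pretreated 30 min with compound, then challenged 45 min with 250 uM BzATP (final). Supernatant IL-1β quantified by ELISA; percent inhibition from background-adjusted levels versus untreated cells.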
`O=C(CC12CC3CC(CC(C3)C1)C2)Nc1ncnc2c1CCN(S(=O)(=O)c1ccccc1)C2` [Compound 143]: the inhibition at 0.3 µM lay within 0 to 25%.
The same measure, in the same setting: as for `O=C(CC12CC3CC(CC(C3)C1)C2)Nc1ncnc2c1CCN(CCO)C2` [Compound 18, 2-Adamantan-1-yl-N-[7-(2-hydroxy-ethyl)-5,6,7,8-tetrahydro-pyrido[3,4-d]pyrimidin-4-yl]-acetamide], the figure is 0 to 25%.

Staying with this experiment, now noted: Homo sapiens; at 0.3 μM; THP-1 cells; read-out: IL-1β % inhibition.
With `O=C(NCC12CC3CC(CC(C3)C1)C2)c1ncnc2c1CCN(Cc1ccccc1)C2` [Compound 17, 7-Benzyl-N-adamantylmethyl-5,6,7,8-tetrahydropyrido[3,4-d]pyrimidine-4-carboxamide], the inhibition at 0.3 µM is > 75%.

The same experiment, now with this note: at 0.3 μM; THP-1 cells.
With `CN(CCO)c1ccc(CN2CCc3c(ncnc3NC(=O)CC34CC5CC(CC(C5)C3)C4)C2)cc1` [Compound 89], the IL-1β % inhibition entry is listed as “+ (compound exhibited 0-25% inhibition at 0.3 μM)”.
On the same count and under the same terms, the entry for `COc1ccc(CN2CCc3c(ncnc3NC(=O)CC34CC5CC(CC(C5)C3)C4)C2)cc1C` [Compound 39] is “+ (compound exhibited 0-25% inhibition at 0.3 μM)”; for `O=C(CC12CC3CC(CC(C3)C1)C2)Nc1ncnc2c1CCN(S(=O)(=O)c1cc(F)ccc1F)C2` [Compound 203] it is “+ (compound exhibited 0-25% inhibition at 0.3 μM)”.
On the same count and under the same terms, the entry for `O=C(CC12CC3CC(CC(C3)C1)C2)Nc1ncnc2c1CCN(C(=O)c1cccc(F)c1)C2` [Compound 227] is “+ (compound exhibited 0-25% inhibition at 0.3 μM)”; for `O=C(NCC12CC3CC(CC(C3)C1)C2)c1ncnc2c1CCN(Cc1ccc(F)cc1)C2` [Compound 338] it is “++++ (compound exhibited 75% or greater inhibition at 0.3 μM)”; for `O=C(CC12CC3CC(CC(C3)C1)C2)Nc1ncnc2c1CCN(S(=O)(=O)c1cccc(F)c1)C2` [Compound 215] it is “+++ (compound exhibited 50-75% inhibition at 0.3 μM)”.
The same measure, in the same setting: the entry for `Cn1ccnc1CN1CCc2c(ncnc2NC(=O)CC23CC4CC(CC(C4)C2)C3)C1` [Compound 67] is “++ (compound exhibited 25-50% inhibition at 0.3 μM)”.
On to `CC(C)(C(=O)Nc1ncnc2c1CCN(S(=O)(=O)c1ccc(F)c(F)c1)C2)C12CC3CC(CC(C3)C1)C2` [Compound 355], for which the IL-1β % inhibition entry is reported as “+ (compound exhibited 0-25% inhibition at 0.3 μM)”.
Take `Cc1oncc1C(=O)N1CCc2c(ncnc2NC(=O)CC23CC4CC(CC(C4)C2)C3)C1` [Compound 299]: the IL-1β % inhibition entry was “+ (compound exhibited 0-25% inhibition at 0.3 μM)”.
Still for that read-out and setting: as for `CC(C)(C(=O)Nc1ncnc2c1CCN(C(=O)c1cc(F)ccc1F)C2)C12CC3CC(CC(C3)C1)C2` [Compound 363], the entry is “+ (compound exhibited 0-25% inhibition at 0.3 μM)”.
Still for that read-out and setting: the entry for `O=C(CC12CC3CC(CC(C3)C1)C2)Nc1ncnc2c1CCN(S(=O)(=O)c1cccc(C(F)(F)F)c1)C2` [Compound 154] is “++++ (compound exhibited 75% or greater inhibition at 0.3 μM)”; for `Cc1cccc(C(=O)N2CCc3c(ncnc3NC(=O)C34CC5CC(CC(C5)C3)C4)C2)c1` [Compound 403] it is “++ (compound exhibited 25-50% inhibition at 0.3 μM)”; for `O=C(CC12CC3CC(CC(C3)C1)C2)Nc1ncnc2c1CCN(C(=O)c1cccnc1)C2` [Compound 237] it is “+ (compound exhibited 0-25% inhibition at 0.3 μM)”.
Still for that read-out and setting: the entry for `O=C(CC12CC3CC(CC(C3)C1)C2)Nc1ncnc2c1CCN(C(=O)c1ccno1)C2` [Compound 296] is “+++ (compound exhibited 50-75% inhibition at 0.3 μM)”.
Regarding `O=C(CC12CC3CC(CC(C3)C1)C2)Nc1ncnc2c1CCN(S(=O)(=O)c1cc(Cl)ccc1Cl)C2` [Compound 204], the IL-1β % inhibition result was “+ (compound exhibited 0-25% inhibition at 0.3 μM)”.
Still for that read-out and setting: the entry for `O=C(CC12CC3CC(CC(C3)C1)C2)Nc1ncnc2c1CCN(C(=O)c1cccc(Cl)c1Cl)C2` [Compound 282] is “++++ (compound exhibited 75% or greater inhibition at 0.3 μM)”.
Same read-out and setting: the entry for `O=C(CC12CC3CC(CC(C3)C1)C2)Nc1ncnc2c1CCN(Cc1ccc(F)cc1)C2` [Compound 123] is “+ (compound exhibited 0-25% inhibition at 0.3 μM)”.
The same measure, in the same setting: the entry for `O=C(CC12CC3CC(CC(C3)C1)C2)Nc1ncnc2c1CCN(Cc1ccccc1C(F)(F)F)C2` [Compound 120] is “+ (compound exhibited 0-25% inhibition at 0.3 μM)”.
On to `O=C(CC12CC3CC(CC(C3)C1)C2)Nc1ncnc2c1CCN(C(=O)C1CC1)C2` [Compound 260], for which the IL-1β % inhibition result is “+++ (compound exhibited 50-75% inhibition at 0.3 μM)”.
On the same count and under the same terms, the entry for `COc1cc(OCc2ccccc2)ccc1CN1CCc2c(ncnc2NC(=O)CC23CC4CC(CC(C4)C2)C3)C1` [Compound 330] is “+++ (compound exhibited 50-75% inhibition at 0.3 μM)”; for `O=C(CC12CC3CC(CC(C3)C1)C2)Nc1ncnc2c1CCN(C(=O)c1ccc(Cl)c(Cl)c1)C2` [Compound 245] it is “+++ (compound exhibited 50-75% inhibition at 0.3 μM)”.
The same measure, in the same setting: the entry for `CC(C)(C)C(=O)N1CCc2c(ncnc2NC(=O)CC23CC4CC(CC(C4)C2)C3)C1` [Compound 252] is “++ (compound exhibited 25-50% inhibition at 0.3 μM)”; for `O=C(CC12CC3CC(CC(C3)C1)C2)Nc1ncnc2c1CCN(Cc1ccc(-n3ccnc3)cc1)C2` [Compound 98] it is “++ (compound exhibited 25-50% inhibition at 0.3 μM)”; for `COc1cccc(S(=O)(=O)N2CCc3c(ncnc3NC(=O)CC34CC5CC(CC(C5)C3)C4)C2)c1` [Compound 162] it is “+ (compound exhibited 0-25% inhibition at 0.3 μM)”.
Still for that read-out and setting: as for `O=C(CC1CCCCC1)Nc1ncnc2c1CCN(CCO)C2` [Compound 22], the entry is “+ (compound exhibited 0-25% inhibition at 0.3 μM)”.

The experiment is the same for the next values; noted with them: at 0.3 μM; THP-1 cells, BzATP-stimulated.
`COc1cc(CN2CCc3c(ncnc3NC(=O)C34CC5CC(CC(C5)C3)C4)C2)cc(OC)c1` [Compound 633]: the IL-1β % inhibition entry is on record as “+ (compound exhibited 0-25% inhibition at 0.3 μM)”.
On the same count and under the same terms, as for `CCOc1cccc(CN2CCc3c(ncnc3NC(=O)C34CC5CC(CC(C5)C3)C4)C2)c1` [Compound 625], the entry is “+ (compound exhibited 0-25% inhibition at 0.3 μM)”; as for `O=C(Nc1ncnc2c1CCN(S(=O)(=O)c1ccc(Cl)cc1)C2)C12CC3CC(CC(C3)C1)C2` [Compound 488], “+ (compound exhibited 0-25% inhibition at 0.3 μM)”.
`COc1ccc(CN2CCc3c(ncnc3NC(=O)C34CC5CC(CC(C5)C3)C4)C2)c(OC)c1` [Compound 608]: the IL-1β % inhibition entry is given as “+ (compound exhibited 0-25% inhibition at 0.3 μM)”.
Same read-out and setting: the entry for `O=C(c1ccc2ccccc2c1)N1CCc2c(ncnc2NC(=O)C23CC4CC(CC(C4)C2)C3)C1` [Compound 460] is “+ (compound exhibited 0-25% inhibition at 0.3 μM)”; for `O=C(Nc1ncnc2c1CCN(Cc1cc(Br)ccc1F)C2)C12CC3CC(CC(C3)C1)C2` [Compound 618] it is “+ (compound exhibited 0-25% inhibition at 0.3 μM)”; for `O=C(Nc1ncnc2c1CCN(S(=O)(=O)Cc1ccc(F)cc1)C2)C12CC3CC(CC(C3)C1)C2` [Compound 517] it is “++ (compound exhibited 25-50% inhibition at 0.3 μM)”.
With `O=C(C1COc2ccccc2C1)N1CCc2c(ncnc2NC(=O)C23CC4CC(CC(C4)C2)C3)C1` (racemic) [Compound 477], the IL-1β % inhibition entry is given as “++ (compound exhibited 25-50% inhibition at 0.3 μM)”.
Still for that read-out and setting: as for `O=C(Nc1ncnc2c1CCN(Cc1cccc(Oc3ccccc3)c1)C2)C12CC3CC(CC(C3)C1)C2` [Compound 568], the entry is “+ (compound exhibited 0-25% inhibition at 0.3 μM)”; as for `O=C(Nc1ncnc2c1CCN(Cc1ccc(Oc3ccccc3)cc1)C2)C12CC3CC(CC(C3)C1)C2` [Compound 576], “+++ (compound exhibited 50-75% inhibition at 0.3 μM)”; as for `O=C(Nc1ncnc2c1CCN(Cc1ccc(Cl)cc1Cl)C2)C12CC3CC(CC(C3)C1)C2` [Compound 570], “++ (compound exhibited 25-50% inhibition at 0.3 μM)”.
For `COc1cc(F)c(CN2CCc3c(ncnc3NC(=O)C34CC5CC(CC(C5)C3)C4)C2)c(F)c1` [Compound 624], the IL-1β % inhibition entry was “+ (compound exhibited 0-25% inhibition at 0.3 μM)”.
Same read-out and setting: the entry for `O=C(Nc1ncnc2c1CCN(S(=O)(=O)c1ccccc1C(F)(F)F)C2)C12CC3CC(CC(C3)C1)C2` [Compound 528] is “++ (compound exhibited 25-50% inhibition at 0.3 μM)”; for `O=C(Nc1ncnc2c1CCN(S(=O)(=O)c1ccc(Oc3ccccc3)cc1)C2)C12CC3CC(CC(C3)C1)C2` [Compound 524] it is “++++ (compound exhibited 75% or greater inhibition at 0.3 μM)”; for `CC(C)(C)c1ccc(CN2CCc3c(ncnc3NC(=O)C34CC5CC(CC(C5)C3)C4)C2)cc1` [Compound 572] it is “++++ (compound exhibited 75% or greater inhibition at 0.3 μM)”.
On the same count and under the same terms, as for `COc1cccc(CC(=O)N2CCc3c(ncnc3NC(=O)C34CC5CC(CC(C5)C3)C4)C2)c1` [Compound 433], the entry is “++ (compound exhibited 25-50% inhibition at 0.3 μM)”.
For the molecule `Cc1noc(C)c1S(=O)(=O)N1CCc2c(ncnc2NC(=O)C23CC4CC(CC(C4)C2)C3)C1` [Compound 503], the IL-1β % inhibition result is “+ (compound exhibited 0-25% inhibition at 0.3 μM)”.
Still for that read-out and setting: as for `COc1cccc(CN2CCc3c(ncnc3NC(=O)C34CC5CC(CC(C5)C3)C4)C2)c1` [Compound 584], the entry is “+ (compound exhibited 0-25% inhibition at 0.3 μM)”; as for `COc1ccc(S(=O)(=O)N2CCc3c(ncnc3NC(=O)C34CC5CC(CC(C5)C3)C4)C2)cc1` [Compound 487], “++ (compound exhibited 25-50% inhibition at 0.3 μM)”; as for `Cc1cc(C(=O)N2CCc3c(ncnc3NC(=O)C34CC5CC(CC(C5)C3)C4)C2)c(C)o1` [Compound 463], “++ (compound exhibited 25-50% inhibition at 0.3 μM)”.
The same measure, in the same setting: as for `O=C(Nc1ncnc2c1CCN(Cc1cccc3c1OCO3)C2)C12CC3CC(CC(C3)C1)C2` [Compound 596], the entry is “+++ (compound exhibited 50-75% inhibition at 0.3 μM)”.
